Source: US20120028917A1, “Use Of N-(4-((3-(2-Amino-4-Pyrimidinyl)-2-Pyridinyl)Oxy)Phenyl)-4-(4-Methyl-2-Thienyl)-1-Phthalazinamine In The Treatment Of Antimitotic Agent Resistant Cancer” (Amgen Inc., priority 2009, published 2012)

Experiments:
HCT116 parental = experiment: Colony formation assay (FIG. 6-B); type: cell-based, human; settings: 48 hours treatment, re-plated drug-free
Method: Cells were grown until the DMSO control wells were confluent. Cells were stained with crystal violet dye (Sigma), washed with distilled water, and imaged using a digital scanner (Hewlett-Packard). Colony formation assay was performed with HCT116 cell lines (parental and AZD1152-resistant). Cells were treated with DMSO, AMG 900, AZD1152, or paclitaxel at the indicated concentrations for 48 hours and re-plated in complete media lacking the inhibitor. After the DMSO-treated cells reached confluence, the cells were stained with crystal violet and imaged (duplicate wells).

HCT15 xenograft = experiment: Xenograft tumor growth inhibition (Example 3); type: in vivo, athymic nude mice; settings: HCT15, Colon; oral BID, best of intermittent or continuous dose schedule
Method: (§1) To investigate whether AMG 900-induced suppression of aurora kinase activity inhibits cell proliferation, the antiproliferative efficacy of AMG 900 was evaluated in-vivo in multiple human cancer xenograft models, including breast, colon, leukemia, lung, pancreatic, and uterine cancer models, grown in athymic nude mice. Mice were administered AMG 900 orally at 3.75, 7.5, or 15 mg/kg BID for 2 consecutive days per week or 3 mg/kg BID everyday for the duration of the study beginning when tumors were established. The reagents, solutions, equipment, formulation of AMG 900, tumor volume measurements and calculations were generally as described in Example 4 below.
(§2) The effect of AMG 900 was tested on the multidrug resistant cell line MES-SA Dx5 grown in vivo as a tumor xenograft. Mice were administered AMG 900 orally at 15 mg/kg BID for 2 consecutive days per week or 3.0 mg/kg BID everyday for the duration of the study. Dosing was initiated when tumors were established (10 days after tumor implantation).

[1] = tested on: NCI-H460-Taxol-r xenograft; experiment: Xenograft tumor growth inhibition (Example 3); type: in vivo, athymic nude mice; settings: Lung, oral BID, best of intermittent or continuous dose schedule
Method: as §1, §2

RPMI-8226 = experiment: Multiparameter cell cycle DNA content assay (flow cytometry); type: cell-based; settings: Homo sapiens; RPMI-8226, Multiple Myeloma; 48 hours without compound withdrawal; read-out: EC50 (+4N DNA content endpoint)
Method: (§3) Tumor cells were seeded in a 300 μL deep 96-well plate in 150 μL of appropriate complete media at a density of 100,000 cells/well. The cells were treated with AMG 900 (10-point dose range 0.156 to 0.0003 μM) with a final DMSO concentration of 0.2% in media. Two hours prior to harvest time, the cells were pulsed with BrdU at the final concentration of 1:100 in media. After 48 hours, 100 μL of media was removed from each well with a multi-well pipetter. Then the cells were transferred to PCR tube strips in 200 μL of media. The cells were centrifuged at 2000 rpm at 18° C. for 4 minutes and the supernatant was aspirated. The cells were then fixed in 200 μL of ice cold 90% methanol and stored at −20° C. for at least 24 hours before antibody and DNA staining. Fixed cells were centrifuged at 2000 rpm for 4 minutes to remove 90% methanol. Cells were washed with 200 μL of wash buffer and then treated with 100 μL acid buffer at room temperature for 1 hour in the dark. Cells were washed twice with 200 μL wash buffer (until pH was 7.0, confirmed with pH paper). Cells were incubated with an anti-BrdU-Alexa 647 (3 μg/mL) and anti-Caspase 3-FITC (20 μ/well) antibody cocktail in wash buffer for 2 hours at room temperature in the dark. Stained cells were centrifuged and washed with 200 μL of wash buffer. Cells were counterstained with 200 μL of propidium iodide (PI) overnight at 4° C. in the dark. Data was acquired and analyzed by flow cytometer (LSRII). A threshold gate was applied according to DNA content, BrdU, and Caspase-3 positive/negative populations based on DMSO control and low/high drug-treated groups. The data was represented as a percentage of SubG1 DNA content, 4N+ DNA content, BrdU, and Caspase-3 cleavage positive populations. The concentration-response curves and EC50 values were calculated using a 4-parameter equation.

HL-60 = experiment: as above; type: cell-based; settings: Homo sapiens; HL-60, Promyelocytic leukemia; 48 hours without compound withdrawal; read-out: EC50 (+4N DNA content endpoint)
Method: as §3

K562 = experiment: as above; type: cell-based; settings: Homo sapiens; K562, Chronic myeloid leukemia; 48 hours without compound withdrawal; read-out: EC50 (+4N DNA content endpoint)
Method: as §3

Jurkat = experiment: as above; type: cell-based; settings: Homo sapiens, T cell leukemia, 48 hours without compound withdrawal, read-out: EC50 (+4N DNA content endpoint)
Method: as §3

MOLT-4 = experiment: as above; type: cell-based; settings: Homo sapiens; MOLT-4, T cell leukemia; 48 hours without compound withdrawal; read-out: EC50 (+4N DNA content endpoint)
Method: as §3

U266-B1 = experiment: as above; type: cell-based; settings: Homo sapiens; U266-B1, Multiple Myeloma; 48 hours without compound withdrawal; read-out: EC50 (+4N DNA content endpoint)
Method: as §3

Compound: Cc1csc(-c2nnc(Nc3ccc(Oc4ncccc4-c4ccnc(N)n4)cc3)c3ccccc23)c1 [AMG 900, N-(4-((3-(2-amino-4-pyrimidinyl)-2-pyridinyl)oxy)phenyl)-4-(4-methyl-2-thienyl)-1-phthalazinamine]
- concentrations inhibiting colony formation (HCT116 parental): ≥ 5 nmol/L
- % TGI (tumor growth inhibition) (HCT15 xenograft): 51%
- % TGI (tumor growth inhibition) [1]: 66%
- EC50 (RPMI-8226): 2 nM
- EC50 (HL-60): 2 nM
- EC50 (K562): 1 nM
- EC50 (Jurkat): 1 nM
- EC50 (MOLT-4): 2 nM
- EC50 (U266-B1): 2 nM
